Data as given in PubChem BioAssay (NCI).
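Step 1: Grow cells in 96-well plates. Step 2: Expose to compound for 48 hours at 5 concentrations. Step 3: Interpolate endpoints linearly; if unreached, use highest concentration. The concentration for 50% growth inhibition is given as GI50. TGI denotes the concentration required for complete inhibition of growth.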

Columns and labels:
Assay in all cases: DTP human tumour cell line panel, 48 h
MCF7 breast = test system: MCF7 breast
HCT-15 colon = test system: HCT-15 colon
NCI-H23 lung = test system: NCI-H23 lung
OVCAR-5 ovarian = test system: OVCAR-5 ovarian
HOP-92 NSCLC = test system: HOP-92 NSCLC
HOP-62 NSCLC = test system: HOP-62 NSCLC
NCI-H522 lung = test system: NCI-H522 lung
UO-31 renal = test system: UO-31 renal
RPMI-8226 leukemia = test system: RPMI-8226 leukemia
OVCAR-3 ovarian = test system: OVCAR-3 ovarian
PC-3 prostate = test system: PC-3 prostate
786-0 renal = test system: 786-0 renal
T-47D breast = test system: T-47D breast
UACC-62 melanoma = test system: UACC-62 melanoma
RXF 393 renal = test system: RXF 393 renal
TK-10 renal = test system: TK-10 renal
ACHN renal = test system: ACHN renal
OVCAR-4 ovarian = test system: OVCAR-4 ovarian
SF-268 CNS = test system: SF-268 CNS
HT29 colon = test system: HT29 colon
BT-549 breast = test system: BT-549 breast
HCT-116 colon = test system: HCT-116 colon
SNB-19 CNS = test system: SNB-19 CNS
U251 CNS = test system: U251 CNS
SNB-75 CNS = test system: SNB-75 CNS
HS 578T breast = test system: HS 578T breast
A498 renal = test system: A498 renal
DU-145 prostate = test system: DU-145 prostate
MDA-MB-435 = test system: MDA-MB-435
M14 melanoma = test system: M14 melanoma
SF-295 CNS = test system: SF-295 CNS
LOX IMVI melanoma = test system: LOX IMVI melanoma
MALME-3M melanoma = test system: MALME-3M melanoma
KM12 colon = test system: KM12 colon
NCI-H226 lung = test system: NCI-H226 lung
K-562 leukemia = test system: K-562 leukemia
OVCAR-8 ovarian = test system: OVCAR-8 ovarian
SK-MEL-2 melanoma = test system: SK-MEL-2 melanoma
IGROV1 ovarian = test system: IGROV1 ovarian
NCI-H460 lung = test system: NCI-H460 lung
A549 NSCLC = test system: A549 NSCLC
SK-OV-3 ovarian = test system: SK-OV-3 ovarian
SF-539 CNS = test system: SF-539 CNS
COLO 205 colon = test system: COLO 205 colon
SK-MEL-28 melanoma = test system: SK-MEL-28 melanoma
MDA-MB-231 breast = test system: MDA-MB-231 breast
MOLT-4 leukemia = test system: MOLT-4 leukemia
UACC-257 melanoma = test system: UACC-257 melanoma
NCI/ADR-RES ovarian = test system: NCI/ADR-RES ovarian
CAKI-1 renal = test system: CAKI-1 renal
EKVX NSCLC = test system: EKVX NSCLC
SN12C renal = test system: SN12C renal
CCRF-CEM leukemia = test system: CCRF-CEM leukemia
SW-620 colon = test system: SW-620 colon
SK-MEL-5 melanoma = test system: SK-MEL-5 melanoma

With `Cc1ccc(C2SCc3nc4ccc(C(=O)c5ccccc5)cc4n32)cc1` (stereo not given) the GI50 (MCF7 breast) was 11.9 µM, the TGI (MCF7 breast) was over 76.7 µM and the GI50 (HCT-15 colon) was 3.85 µM. The TGI (HCT-15 colon) was over 42.9 µM, the GI50 (NCI-H23 lung) was 14.4 µM and the TGI (NCI-H23 lung) was over 62 µM. For the same compound, the GI50 (OVCAR-5 ovarian) was 21.5 µM, the TGI (OVCAR-5 ovarian) was 55.2 µM and the GI50 (HOP-92 NSCLC) was 11.7 µM. The TGI (HOP-92 NSCLC) was 38.8 µM, the GI50 (HOP-62 NSCLC) was 14.8 µM and the TGI (HOP-62 NSCLC) was 39.6 µM. The GI50 (NCI-H522 lung) was 7.93 µM, the TGI (NCI-H522 lung) was 38.2 µM and the GI50 (UO-31 renal) was 17 µM. The TGI (UO-31 renal) was 54.9 µM, the GI50 (RPMI-8226 leukemia) was 10.3 µM and the TGI (RPMI-8226 leukemia) was over 95 µM. It also gave a GI50 (OVCAR-3 ovarian) of 6.72 µM, a TGI (OVCAR-3 ovarian) of 21.9 µM and a GI50 (PC-3 prostate) of 10.5 µM. For the same compound, the TGI (PC-3 prostate) was over 67.5 µM, the GI50 (786-0 renal) was 13.3 µM and the TGI (786-0 renal) was 42.2 µM. The GI50 (T-47D breast) was 14 µM, the TGI (T-47D breast) was over 63.5 µM and the GI50 (UACC-62 melanoma) was 5.29 µM. It also gave a TGI (UACC-62 melanoma) of 19.3 µM, a GI50 (RXF 393 renal) of 21.4 µM and a TGI (RXF 393 renal) of 70.3 µM. For the same compound, the GI50 (TK-10 renal) was 13.9 µM, the TGI (TK-10 renal) was 35.1 µM and the GI50 (ACHN renal) was 14.1 µM. It also gave a TGI (ACHN renal) of over 56.9 µM, a GI50 (OVCAR-4 ovarian) of 34 µM and a TGI (OVCAR-4 ovarian) of over 100 µM. For the same compound, the GI50 (SF-268 CNS) was 22.4 µM, the TGI (SF-268 CNS) was 77.7 µM and the GI50 (HT29 colon) was 5.73 µM. The TGI (HT29 colon) was over 100 µM, the GI50 (BT-549 breast) was 4.8 µM and the TGI (BT-549 breast) was 18.4 µM. The GI50 (HCT-116 colon) was 3.99 µM, the TGI (HCT-116 colon) was 41.3 µM and the GI50 (SNB-19 CNS) was 12.4 µM. The TGI (SNB-19 CNS) was over 71.9 µM, the GI50 (U251 CNS) was 5.09 µM and the TGI (U251 CNS) was over 83.7 µM. It also gave a GI50 (SNB-75 CNS) of 23.3 µM, a TGI (SNB-75 CNS) of over 70 µM and a GI50 (HS 578T breast) of 22.2 µM. The TGI (HS 578T breast) was 68.9 µM, the GI50 (A498 renal) was 13.5 µM and the TGI (A498 renal) was 36.3 µM. It also gave a GI50 (DU-145 prostate) of 27.9 µM, a TGI (DU-145 prostate) of 89.6 µM and a GI50 (MDA-MB-435) of 2.83 µM. For the same compound, the TGI (MDA-MB-435) was 11.4 µM, the GI50 (M14 melanoma) was 11.6 µM and the TGI (M14 melanoma) was over 69.1 µM. For the same compound, the GI50 (SF-295 CNS) was 8.21 µM, the TGI (SF-295 CNS) was 33 µM and the GI50 (LOX IMVI melanoma) was over 36.7 µM. It also gave a TGI (LOX IMVI melanoma) of over 100 µM, a GI50 (MALME-3M melanoma) of 6.27 µM and a TGI (MALME-3M melanoma) of 26.8 µM. It also gave a GI50 (KM12 colon) of 6.49 µM, a TGI (KM12 colon) of 35.2 µM and a GI50 (NCI-H226 lung) of 15.3 µM. The TGI (NCI-H226 lung) was 62.3 µM, the GI50 (K-562 leukemia) was 3.74 µM and the TGI (K-562 leukemia) was over 100 µM. For the same compound, the GI50 (OVCAR-8 ovarian) was 15.4 µM, the TGI (OVCAR-8 ovarian) was 62.6 µM and the GI50 (SK-MEL-2 melanoma) was 12.1 µM. The TGI (SK-MEL-2 melanoma) was 47.3 µM, the GI50 (IGROV1 ovarian) was 13.6 µM and the TGI (IGROV1 ovarian) was over 69 µM. For the same compound, the GI50 (NCI-H460 lung) was 10.7 µM, the TGI (NCI-H460 lung) was over 75.6 µM and the GI50 (A549 NSCLC) was 5.99 µM. The TGI (A549 NSCLC) was over 63.3 µM, the GI50 (SK-OV-3 ovarian) was 20.5 µM and the TGI (SK-OV-3 ovarian) was 47.8 µM. It also gave a GI50 (SF-539 CNS) of 13.4 µM, a TGI (SF-539 CNS) of 32.5 µM and a GI50 (COLO 205 colon) of 6.18 µM. It also gave a TGI (COLO 205 colon) of over 100 µM, a GI50 (SK-MEL-28 melanoma) of 17.7 µM and a TGI (SK-MEL-28 melanoma) of over 100 µM. The GI50 (MDA-MB-231 breast) was 3.66 µM, the TGI (MDA-MB-231 breast) was 19.4 µM and the GI50 (MOLT-4 leukemia) was 14.8 µM. It also gave a TGI (MOLT-4 leukemia) of over 100 µM, a GI50 (UACC-257 melanoma) of 22 µM and a TGI (UACC-257 melanoma) of over 61.9 µM. The GI50 (NCI/ADR-RES ovarian) was 2.37 µM, the TGI (NCI/ADR-RES ovarian) was 8.38 µM and the GI50 (CAKI-1 renal) was 0.457 µM. It also gave a TGI (CAKI-1 renal) of 4.26 µM, a GI50 (EKVX NSCLC) of 21.8 µM and a TGI (EKVX NSCLC) of over 100 µM. It also gave a GI50 (SN12C renal) of 11.4 µM, a TGI (SN12C renal) of 38.3 µM and a GI50 (CCRF-CEM leukemia) of 23.8 µM. The TGI (CCRF-CEM leukemia) was over 100 µM, the GI50 (SW-620 colon) was 3.69 µM and the TGI (SW-620 colon) was over 39.1 µM. The GI50 (SK-MEL-5 melanoma) was 1.33 µM and the TGI (SK-MEL-5 melanoma) was 7.48 µM.
